Experimental data taken from US20220233661A1, “METHOD OF DETERMINING ELIGIBILITY OF CANCER PATIENT FOR PEPTIDE VACCINE THERAPY” (priority 2019, published 2022).

What was measured:
[1] = system: cancer patients; assay: Test Example 4: correlation between vaccination with individual peptides (or peptide sets) and OS, Cox proportional hazards regression; type: in vivo, human; conditions: for HR: Cox proportional hazards regression, OS; for Correlation between immune responses and OS: Negative (mOS) / Correlation between immune responses and OS: Positive (mOS): Table 20, <64% neutrophil and ≥26% lymphocyte; for Correlation between immune responses and OS: Negative (mOS): vaccinated patients with negative IgG response; for Correlation between immune responses and OS: Positive (mOS): vaccinated patients with positive IgG response
Summary of the method: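 Univariate and multivariate Cox proportional hazards regression of each of 31 vaccine peptides against OS (enrollment to death or last contact), giving HR with 95% CI; also run separately in 2,085 advanced (stage IV+recurrence) and 503 stage I-III patients. Two-sided p<0.05 considered significant.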

[2] = system: anti-peptide IgG in plasma; assay: Test Example 4: peptide-specific IgG titer pre and post vaccination, bead-based multiplexed Luminex assay; type: in vivo, human; conditions: for Pre-vaccination IgG Negative (number of patients) / Pre-vaccination IgG Positive (number of patients): cut off 10 FIU; for Post vaccination IgG: number of (positive) patients among vaccinated: positive IgG response; for Pre-vaccination IgG Negative patients: number of 2,588 patients below 10 FIU; for Pre-vaccination IgG Positive patients: number of 2,588 patients with ≥10 FIU; for Post vaccination IgG: (positive) patients: number of vaccinated patients with positive IgG response; for Correlation between immune responses and OS: Negative (mOS): patients with negative post-vaccination IgG response to the peptide; for Correlation between immune responses and OS: Positive (mOS): patients with positive post-vaccination IgG response to the peptide
Summary of the method: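 Plasma taken before vaccination and at the end of the first and second cycles; incubated with peptide-coupled beads 2 hours at 25° C., then biotinylated anti-human IgG (gamma chain-specific) and streptavidin-PE. Bead FIU read by Luminex; positivity cutoff 10 FIU in 100-fold diluted samples.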

[3] = Table 18, all 2,588 cases, vaccinated vs non-vaccinated
[4] = Table 18, all 2,588 cases, median OS of patients under PPV containing the peptide
[5] = Table 18, all 2,588 cases, median OS of patients under PPV not containing the peptide
[6] = Table 19, 2,085 advanced cancer patients (stage IV+recurrence)
[7] = Table 19, 2,085 advanced cancer patients (stage IV+recurrence), PPV containing the peptide
[8] = Table 19, 2,085 advanced cancer patients (stage IV+recurrence), PPV not containing the peptide
[9] = Table 21, patients showing both <64% neutrophil and ≥26% lymphocyte
[10] = Table 21, patients showing both <64% neutrophil and ≥26% lymphocyte, PPV containing the peptide
[11] = Table 21, patients showing both <64% neutrophil and ≥26% lymphocyte, PPV not containing the peptide
[12] = Table 20, patients showing both <64% neutrophil and ≥26% lymphocyte
[13] = patients showing detectable levels
[14] = patients showing positive responses

Row | Sequence | HR [1, 3] | Vaccinate cases (mOS) [1, 4] | Non-vaccinate cases (mOS) [1, 5] | HR [1, 6] | Vaccinate cases (mOS) [1, 7] | Non-vaccinate cases (mOS) [1, 8] | Correlation between immune responses and OS: Negative (mOS) [1] [months] | Correlation between immune responses and OS: Positive (mOS) [1] [months] | HR [1, 9] | Vaccinate cases (mOS) [1, 10] | Non-vaccinate cases (mOS) [1, 11] | Post vaccination IgG Median (FIU) [2, 12] | Pre-vaccination IgG Median (FIU) [2, 12] [FIU] | Pre-vaccination IgG Negative (number of patients) [2, 12] | Pre-vaccination IgG Positive (number of patients) [2, 12] | Post vaccination IgG: number of (positive) patients among vaccinated [2, 12] | Pre-vaccination IgG Negative patients [2] | Pre-vaccination IgG Positive patients [2] | Post vaccination IgG: (positive) patients [2] | Pre-vaccination IgG Median (FIU) [2, 13] [FIU] | other results
1 | HYRKWIKDTI (listed as Homo sapiens) [PSA-248] | 0.9 | 283(13.8) M | 1,267(11.6) M | 0.9 | 230(13.0) M | 1016(10.2) M | 9.6 | 27.4 | 0.9 | 107(20.4) M | 518(17.9) M | 18,191 FIU | 47 | 231 | 835 | 107(81) | 553 | 2,035 | 283(200) | 48 | Post vaccination IgG Median (FIU) [2, 14]: 13,165 FIU; Correlation between immune responses and OS: Negative (mOS) [2]: 7.0 months; Correlation between immune responses and OS: Positive (mOS) [2]: 20.2 months
2 | NVLHFFNAPL (listed as Homo sapiens) [HNRPL-501] | 1.0 | 355(12.1) M | 1,107(11.6) M | 1.0 | 291(10.4) M | 897(10.3) M | 10.6 | 28.2 | 0.9 | 148(19.6) M | 445(17.5) M | 12,553 FIU | 48 | 587 | 479 | 148(111) | 1,399 | 1,189 | 355(223) | 45 | Post vaccination IgG Median (FIU) [2, 14]: 10,405 FIU; Correlation between immune responses and OS: Negative (mOS) [2]: 6.6 months; Correlation between immune responses and OS: Positive (mOS) [2]: 19.3 months
3 | LYAWEPSFL (listed as Homo sapiens) [MRP3-503] | 0.9 | 133(14.1) M | 1,417(11.9) M | 0.9 | 108(13.4) M | 1138(10.4) M | 12.6 | 25.1 | 1.0 | 61(24.3) M | 564(18.1) M | 13,871 FIU | 40 | 885 | 181 | 61(46) | 2,121 | 467 | 133(85) | 37 | Post vaccination IgG Median (FIU) [2, 14]: 6,401 FIU; Correlation between immune responses and OS: Negative (mOS) [2]: 9.3 months; Correlation between immune responses and OS: Positive (mOS) [2]: 20.6 months
